In patent US5491072A, “N-alkylacridan carboxyl derivatives useful for chemiluminescent detection” (Lumigen, Inc., priority 1993, dated 1996):

Experiments:
horseradish peroxidase [1] = molecular target: T1, horseradish peroxidase (Armoracia rusticana, UniProt P00433); experiment: Comparison of compounds 1a-e at pH 8.9, time course and total intensity of chemiluminescence; format: biochemical; conditions: 0.01 mM acridan, 0.1M phosphate pH 8.9, 6.2 mM H2O2, 2.25 mM p-iodophenol, 1×10^-13 mol HRP
T1 sequence (P00433 31-338 limits assumed): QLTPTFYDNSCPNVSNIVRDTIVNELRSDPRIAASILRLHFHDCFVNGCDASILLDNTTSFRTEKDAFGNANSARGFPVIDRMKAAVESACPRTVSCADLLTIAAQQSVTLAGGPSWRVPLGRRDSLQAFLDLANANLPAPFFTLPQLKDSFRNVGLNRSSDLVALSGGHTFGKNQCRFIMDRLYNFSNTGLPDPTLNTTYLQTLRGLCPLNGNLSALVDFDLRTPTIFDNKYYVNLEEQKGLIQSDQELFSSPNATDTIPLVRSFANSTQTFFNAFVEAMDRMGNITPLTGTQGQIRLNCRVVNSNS
Method: (§1) The experiments in the following examples were performed using a Turner Designs TD-20e luminometer fitted with neutral density filter for light attenuation. Data collection, analysis and display were software controlled. Constant temperature was maintained by means of an external circulating water bath connected to the luminometer.
A 200 μL volume of a formulation containing 0.01 mM acridan compound 1a-e in 0.1M phosphate buffer, pH 8.9, […] (6.2 mM) H2 O2, 2.25 mM p-iodophenol, 0.5% (w/w) Tween 20 and 1 mM EDTA was reacted with 1×10^-13 mol of horseradish peroxidase. […] Compared below are the peak light intensity (Imax) in relative light units (RLU), the time to maximum light intensity (tmax) and total light output.

horseradish peroxidase [2] = molecular target: T1, horseradish peroxidase; experiment: Sensitivity of detection of horseradish peroxidase using 1b and sodium perborate; format: biochemical; conditions: 1b 46 μmol/L, 0.2 mmol/L perborate, 37° C.; for linear assay range for HRP: pH 8.0 tris
Method: as §1
A matrix optimization experiment was done using 1b (0.1 mM-0.05 mM), sodium perborate (3 mM-0.2 mM) and HRP (1.4×10^-18 mol-1.4×10^-14 mol) at 37° C. The final assay reagent consists of 2.25×10^-3 M p-iodophenol, 0.5% Tween 20 and 1×10^-3 M EDTA in pH 8.0, 0.1M tris buffer. The best compromise between sensitivity and dynamic range was obtained using 1b (46 μmol/L) and 0.2 mmol/L perborate. These conditions gave a linear assay for HRP in the range of […] to 1.4×10^-14 mol (detection limit S/B=1.4 after 5 min with 1.4×10^-18 mol) or in the range of 1.4×10^-18 to 1.4×10^-15 mol (detection limit S/B-1.5 after 15 min with 1.4×10^-18 mol).
FIGS. 3A to 3C show the correlation of corrected signal to background vs. amount of HRP using solutions containing 0.05 mM 1b, 0.5% Tween 20, 1×10^-3 M EDTA in pH 8.0, 0.1M tris buffer.

**Q.** Which results are given for `CN1c2ccccc2C(C(=O)Oc2ccc(O)cc2)c2ccccc21` [Compound 1b, 4'-Hydroxyphenyl 10-methylacridan-9-carboxylate]?
**A.** I max (RLU), peak light intensity (horseradish peroxidase [1]; 0.5% Tween 20, 1 mM EDTA): 2047 RLU; I total (RLU), total light output (horseradish peroxidase [1]): 2 × 10^6 RLU; t max (min), time to maximum light intensity (horseradish peroxidase [1]): 4.2 min; linear assay range for HRP (horseradish peroxidase [2]; after 5 min): 4e-19 to 1.4e-14 mol; linear assay range for HRP (horseradish peroxidase [2]; after 15 min): 1.4e-18 to 1.4e-15 mol; detection limit S/B (horseradish peroxidase [2]; after 5 min with 1.4×10^-18 mol HRP): 1.4
